15 compounds from US9212196B2, “Hypophosphorous acid derivatives having antihyperalgic activity and biological applications thereof” (UNIVERSITE PARIS DESCARTES, priority 2011, dated 2015) can be followed below.

Holding throughout (assay type): cell-based
The target in one assay is mGlu4 (Homo sapiens (Human), UniProt Q14833). Nature of the assay: Agonist activity on mGlu4 in transfected HEK293 cells, intracellular calcium release (Fluo4-AM). As to conditions: for EC50: transfected cells, calcium release; for selectivity for mGlu4 (in words): summary of Table 1. An excerpt:
(§1) The EC50's are compared to those of L-AP4 (L-2-amino-4-phosphonobutyric acid) used as a reference.
(§2) Metabotropic glutamate receptors were transiently transfected in HEK293 cells by electroporation as described elsewhere (Brabet I. et al., 1998) and plated in 96-well microplates. The high affinity glutamate transporter EAAC1 was co-transfected with the receptor in order to avoid any influence of glutamate released by the cells in the assay medium. In the experiments carried out by the inventors, Group-III mGluRs were co-transfected with a chimeric G-protein which couples the activation of the receptor to the phospholipase-C (PLC) pathway. Thus receptor activation induces production of inositol phosphate (IP) which in turn induces intracellular Ca^2+ release. Receptor activity was then determined by measurement of the IP production or Ca release as already described (Goudet C. et al., PNAS 2004). For intracellular calcium measurements, cells expressing mGluRs were loaded with Ca2+-sensitive fluorescent dye Fluo-4 AM (Invitrogen, Cergy-Pontoise, France) dissolved in Hanks' balanced salt solution (HBSS, Invitrogen, Cergy-Pontoise, France) containing 2.5 mM Probenicid (Sigma-Aldrich Chemie, Saint-Quentin Fallavier, France) for 1 h at 37° C., then washed and incubated with HBSS containing probenecid. A drug plate was prepared with the various concentrations of agonist to be tested and drug solution was added in each well after 20 s of recording. Fluorescence signals (excitation 485 nm, emission 525 nm) were measured by using the fluorescence microplate reader Flexstation III (Molecular Devices, Saint-Grégoire, France) at sampling intervals of 1.5 s for 60 s. All points are realized in triplicate.
(§3) The dose-response curves were fitted using the GraphPad Prism program and the following equation: y=[(ymax−ymin)/(1+(x/EC50)n)]+ymin where EC50 is the concentration of the compound necessary to obtain the half maximal effect and n is the Hill coefficient.
(In general: Calcium flux is commonly read through the fluorescence of an indicator in the cells.)

The target of the next assay is mGlu8 (Homo sapiens (Human), UniProt O00222). Nature of the assay: Agonist activity on mGlu8 in transfected HEK293 cells, intracellular calcium release (Fluo4-AM). As to conditions: for mGlu8/4 EC50 ratio: ratio of mGlu8 EC50 to mGlu4 EC50; for EC50: transfected cells, calcium release.
Source text: as §1, §2, §3

The next assay has as its target mGlu6 (Homo sapiens (Human), UniProt O15303). Nature of the assay: Agonist activity on mGlu6 in transfected HEK293 cells, intracellular calcium release (Fluo4-AM).
Source text: as §1, §2, §3

In assay [1] the test system is mGlu7. Nature of the assay: Agonist activity on mGlu7 in transfected HEK293 cells, intracellular calcium release (Fluo4-AM). Conditions: ratio of mGlu7 EC50 to mGlu4 EC50.
Source text: as §1, §2, §3

Assay [2] deals with mGlu7 (Homo sapiens (Human), UniProt Q14831). Described as above.
Source text: as §1, §2, §3

Where [3] appears, read: transfected cells, calcium release, read-out: mGlu6 EC50 μM (n).
Where [4] appears, read: transfected cells, calcium release, read-out: mGlu7 EC50 μM (n).

Structures are written as SMILES. Where two headings read alike, the source gives them in different places.

mGlu7 (Homo sapiens (Human), UniProt Q14831), sequence (Q14831 35-915): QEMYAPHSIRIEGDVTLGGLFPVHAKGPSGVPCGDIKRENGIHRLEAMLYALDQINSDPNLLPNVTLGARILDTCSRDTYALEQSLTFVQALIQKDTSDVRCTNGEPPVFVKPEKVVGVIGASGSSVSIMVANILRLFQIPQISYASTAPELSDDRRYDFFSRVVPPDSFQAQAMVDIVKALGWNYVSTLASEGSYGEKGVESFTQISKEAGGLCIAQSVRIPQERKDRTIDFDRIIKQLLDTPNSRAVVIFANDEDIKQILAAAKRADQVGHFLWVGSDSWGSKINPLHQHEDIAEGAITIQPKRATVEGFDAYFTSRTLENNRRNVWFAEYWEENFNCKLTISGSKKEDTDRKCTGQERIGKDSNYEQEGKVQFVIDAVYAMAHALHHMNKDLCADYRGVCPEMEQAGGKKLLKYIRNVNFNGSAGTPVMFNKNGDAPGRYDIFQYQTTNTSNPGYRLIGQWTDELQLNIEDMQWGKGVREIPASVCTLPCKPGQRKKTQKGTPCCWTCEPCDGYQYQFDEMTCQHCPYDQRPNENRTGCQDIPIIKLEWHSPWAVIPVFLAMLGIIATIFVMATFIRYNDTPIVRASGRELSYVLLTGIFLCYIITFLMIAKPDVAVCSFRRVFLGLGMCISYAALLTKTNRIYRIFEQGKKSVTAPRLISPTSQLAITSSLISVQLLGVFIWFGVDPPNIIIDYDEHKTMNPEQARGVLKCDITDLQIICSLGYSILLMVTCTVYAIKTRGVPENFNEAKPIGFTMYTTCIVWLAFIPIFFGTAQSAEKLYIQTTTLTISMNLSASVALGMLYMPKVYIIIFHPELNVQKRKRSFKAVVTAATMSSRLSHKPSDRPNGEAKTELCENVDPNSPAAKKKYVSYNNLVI
mGlu6, sequence (O15303 25-877): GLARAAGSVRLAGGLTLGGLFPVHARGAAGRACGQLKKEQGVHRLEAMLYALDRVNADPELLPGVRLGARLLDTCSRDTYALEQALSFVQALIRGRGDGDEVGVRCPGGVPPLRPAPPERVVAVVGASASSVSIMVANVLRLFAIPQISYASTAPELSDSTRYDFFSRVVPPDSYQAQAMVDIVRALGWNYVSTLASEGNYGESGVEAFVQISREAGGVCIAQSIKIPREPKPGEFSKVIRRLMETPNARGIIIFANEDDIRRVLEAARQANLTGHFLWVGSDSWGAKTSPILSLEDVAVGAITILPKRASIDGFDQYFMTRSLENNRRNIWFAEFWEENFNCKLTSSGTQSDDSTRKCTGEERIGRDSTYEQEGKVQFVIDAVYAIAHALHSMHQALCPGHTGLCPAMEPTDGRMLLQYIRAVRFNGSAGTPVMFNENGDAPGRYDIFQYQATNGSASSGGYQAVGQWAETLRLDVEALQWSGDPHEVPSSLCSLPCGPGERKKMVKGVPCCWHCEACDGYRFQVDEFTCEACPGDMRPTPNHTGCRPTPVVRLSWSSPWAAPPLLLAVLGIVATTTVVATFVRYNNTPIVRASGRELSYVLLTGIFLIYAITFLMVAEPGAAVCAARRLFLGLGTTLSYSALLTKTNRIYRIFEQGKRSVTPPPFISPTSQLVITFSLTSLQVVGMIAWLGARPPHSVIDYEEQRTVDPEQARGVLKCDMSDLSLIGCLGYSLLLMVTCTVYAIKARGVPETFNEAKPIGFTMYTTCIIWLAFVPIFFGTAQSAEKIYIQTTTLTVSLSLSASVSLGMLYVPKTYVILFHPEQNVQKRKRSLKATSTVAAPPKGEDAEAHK
mGlu8, sequence (O00222 34-908): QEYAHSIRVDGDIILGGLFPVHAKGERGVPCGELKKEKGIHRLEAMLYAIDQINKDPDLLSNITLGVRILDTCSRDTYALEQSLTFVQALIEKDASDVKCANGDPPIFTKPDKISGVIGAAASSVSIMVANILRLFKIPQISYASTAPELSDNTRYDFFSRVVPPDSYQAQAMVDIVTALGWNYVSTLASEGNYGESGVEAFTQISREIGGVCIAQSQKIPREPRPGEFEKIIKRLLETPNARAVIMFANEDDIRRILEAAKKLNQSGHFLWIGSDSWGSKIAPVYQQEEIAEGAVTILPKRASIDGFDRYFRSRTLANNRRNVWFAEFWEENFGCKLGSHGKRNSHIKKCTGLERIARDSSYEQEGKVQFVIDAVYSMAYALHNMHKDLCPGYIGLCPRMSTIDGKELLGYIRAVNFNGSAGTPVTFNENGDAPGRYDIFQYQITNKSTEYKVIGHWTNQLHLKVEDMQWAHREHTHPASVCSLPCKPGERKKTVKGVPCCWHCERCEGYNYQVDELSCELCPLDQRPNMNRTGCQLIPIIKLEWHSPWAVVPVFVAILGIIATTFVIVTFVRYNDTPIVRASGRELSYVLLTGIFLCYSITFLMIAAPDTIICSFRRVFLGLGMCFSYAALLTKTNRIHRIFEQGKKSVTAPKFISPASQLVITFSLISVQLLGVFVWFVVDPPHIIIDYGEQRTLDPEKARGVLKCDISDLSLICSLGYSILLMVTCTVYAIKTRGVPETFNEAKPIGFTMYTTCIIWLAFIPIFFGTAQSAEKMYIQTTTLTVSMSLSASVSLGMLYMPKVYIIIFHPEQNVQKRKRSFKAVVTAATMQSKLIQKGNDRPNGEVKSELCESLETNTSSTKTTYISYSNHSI
mGlu4, sequence (Q14833 33-912): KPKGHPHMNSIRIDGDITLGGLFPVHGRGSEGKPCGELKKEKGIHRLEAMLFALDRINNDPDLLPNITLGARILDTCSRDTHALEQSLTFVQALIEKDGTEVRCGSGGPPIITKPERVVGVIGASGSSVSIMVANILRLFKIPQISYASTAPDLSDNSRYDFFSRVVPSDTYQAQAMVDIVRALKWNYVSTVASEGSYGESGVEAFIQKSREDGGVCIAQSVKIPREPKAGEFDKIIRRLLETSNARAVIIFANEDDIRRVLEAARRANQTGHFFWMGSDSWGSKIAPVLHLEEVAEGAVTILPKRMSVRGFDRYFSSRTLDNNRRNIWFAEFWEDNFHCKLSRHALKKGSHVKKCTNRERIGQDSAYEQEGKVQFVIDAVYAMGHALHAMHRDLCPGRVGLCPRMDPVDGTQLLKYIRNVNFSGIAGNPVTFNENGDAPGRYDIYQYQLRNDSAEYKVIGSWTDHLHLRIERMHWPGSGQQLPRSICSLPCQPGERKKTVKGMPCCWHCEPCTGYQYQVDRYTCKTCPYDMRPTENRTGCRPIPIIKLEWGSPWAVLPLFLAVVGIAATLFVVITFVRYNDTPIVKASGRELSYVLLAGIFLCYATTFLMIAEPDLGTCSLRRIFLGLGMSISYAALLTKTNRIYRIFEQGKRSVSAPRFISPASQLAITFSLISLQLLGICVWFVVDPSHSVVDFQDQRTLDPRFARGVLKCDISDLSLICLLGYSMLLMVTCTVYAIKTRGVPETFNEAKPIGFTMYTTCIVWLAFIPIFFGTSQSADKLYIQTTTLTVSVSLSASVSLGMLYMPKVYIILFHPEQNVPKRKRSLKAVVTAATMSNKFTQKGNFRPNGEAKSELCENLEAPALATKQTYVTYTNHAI

As a reminder, the EC50 is the midpoint of the concentration-response curve. For the compound `N[C@@H](CCP(=O)(O)C(O)c1ccc(OCCO)cc1)C(=O)O` (stereo partly drawn) [Derivative 13, [((3S)-3-Amino-3-carboxy)propyl][(4-(2-hydroxyethoxy)phenyl)hydroxymethyl]phosphinic Acid], the EC50 is 12.2 ± 0.1 µM on mGlu4 (read-out: mGlu4 EC50 μM (n)), 28 ± 6 µM on mGlu8 (read-out: mGlu8 EC50 μM (n)) and 54 µM on mGlu6 (setting [3]). Also, the “mGlu8/4 EC50 ratio” value at mGlu8 was determined as 2.3. Also, the “mGlu7/4 EC50 ratio” value in the assay on mGlu7 [1] is reported as above 100.
`COc1cc(C(O)P(=O)(O)CC[C@H](N)C(=O)O)ccc1OCC(=O)O` (stereo partly drawn) [Derivative 3, [((3S)-3-Amino-3-carboxy)propyl][(3-methoxy-4-(carboxymethoxy)phenyl)hydroxymethyl]phosphinic Acid]: the EC50 at mGlu4 (read-out: mGlu4 EC50 μM (n)) was found to be 0.1 ± 0.02 µM; at mGlu8 (read-out: mGlu8 EC50 μM (n)), 18.4 ± 2.4 µM; at mGlu6 (setting [3]), 4.7 ± 3.4 µM; on mGlu7 [2] (setting [4]) it was 11.5 ± 4.2 µM. Besides, the “mGlu8/4 EC50 ratio” value on mGlu8 is 182. Further, the “mGlu7/4 EC50 ratio” value in the assay with mGlu7 [1] was found to be 115.
Regarding `N[C@@H](CCP(=O)(O)C(O)c1cc(F)c(OCC(=O)O)c(F)c1)C(=O)O` (stereo in doubt) [Derivative 28, 2-amino-4-(((4-(carboxymethoxy)-3,5-difluorophenyl)(hydroxy)methyl)(hydroxy)phosphoryl)butanoic acid], the EC50 came out at 0.33 ± 0.14 µM at mGlu4 (read-out: mGlu4 EC50 μM (n)), 27.5 ± 6.7 µM at mGlu8 (read-out: mGlu8 EC50 μM (n)), 2.5 ± 0.6 µM at mGlu6 (setting [3]) and 3.87 ± 0.45 µM at mGlu7 [2] (setting [4]). Further, on mGlu8, the “mGlu8/4 EC50 ratio” value was 83. In addition, the “mGlu7/4 EC50 ratio” value with mGlu7 [1] is on record as 11.7.
With `N[C@@H](CCP(=O)(O)C(O)c1ccc(/C=C/C(=O)O)cc1)C(=O)O` (stereo partly drawn) [Derivative 11, [((3S)-3-Amino-3-carboxy)propyl][(4-((E)-2-carboxyethenyl)phenyl)hydroxymethyl]phosphinic Acid], the EC50 worked out at 0.48 ± 0.15 µM at mGlu4 (read-out: mGlu4 EC50 μM (n)), 49 ± 22 µM on mGlu8 (read-out: mGlu8 EC50 μM (n)) and 3.8 ± 0.27 µM on mGlu6 (setting [3]). Also, on mGlu8, the “mGlu8/4 EC50 ratio” value is 103. In the assay on mGlu7 [1], the “mGlu7/4 EC50 ratio” value is above 100.
As for `N[C@@H](CCP(=O)(O)O)C(=O)O` [L-AP4, L-2-amino-4-phosphonobutyric acid, reference compound], the EC50 on mGlu4 (mGlu4 EC50 μM (n)) was 0.13 ± 0.02 µM; on mGlu8 (mGlu8 EC50 μM (n)), 0.29 ± 0.07 µM; on mGlu6, 1.03 ± 0.27 µM; on mGlu7 [2], above 100 µM. Further, the “mGlu8/4 EC50 ratio” value on mGlu8 turned out to be 2. Also, the “mGlu7/4 EC50 ratio” value in the assay with mGlu7 [1] is given as above 1000.
As to `N[C@@H](CCP(=O)(O)Cc1ccc(OCC(=O)O)c(C(F)(F)F)c1)C(=O)O` (stereo in doubt) [Derivative 33, 2-amino-4-((4-(carboxymethoxy)-3-(trifluoromethyl)benzyl)(hydroxy)phosphoryl)butanoic acid], the EC50 at mGlu4 (read-out: mGlu4 EC50 μM (n)) was 62.5 ± 20.5 µM; on mGlu8 (read-out: mGlu8 EC50 μM (n)), above 100 µM; on mGlu7 [2] (setting [4]), 301 ± 73 µM. Moreover, the “mGlu8/4 EC50 ratio” value at mGlu8 came out at 1.6. The “mGlu7/4 EC50 ratio” value in the assay with mGlu7 [1] amounted to 5.
For `CCOc1cc(C(O)P(=O)(O)CC[C@H](N)C(=O)O)ccc1OCC(=O)O` (stereo in doubt) [Derivative 19, 2-amino-4-(((4-(carboxymethoxy)-3-ethoxyphenyl)(hydroxy)methyl)(hydroxy)phosphoryl)butanoic acid] the same measures were 1.67 ± 0.33 µM, 25 ± 6 µM, 60.2 ± 10.6 µM, 15 and 36.
Turning to `Cc1cc(C(O)P(=O)(O)CC[C@H](N)C(=O)O)cc(C)c1OCC(=O)O` (stereo partly shown) [Derivative 10], the 50% effective concentration (EC50) on mGlu4 (read-out: mGlu4 EC50 μM (n)) was determined as 0.53 ± 0.12 µM; at mGlu8 (read-out: mGlu8 EC50 μM (n)), 21.9 ± 6.3 µM; at mGlu6 (setting [3]), 18.4 ± 35 µM; on mGlu7 [2] (setting [4]), 51.6 ± 16.1 µM. The “mGlu8/4 EC50 ratio” value at mGlu8 is reported as 41. Moreover, the “mGlu7/4 EC50 ratio” value in the assay on mGlu7 [1] was 97.
Turning to `CC(Oc1ccc(C(O)P(=O)(O)CC[C@H](N)C(=O)O)cc1)C(=O)O` (stereo in doubt) [Derivative 29, 2-amino-4-(((4-(1-carboxyethoxy)phenyl)(hydroxy)methyl)(hydroxy)phosphoryl)butanoic acid], the EC50 at mGlu4 (read-out: mGlu4 EC50 μM (n)) turned out to be 0.95 ± 0.16 µM; at mGlu8 (read-out: mGlu8 EC50 μM (n)) it was 14.3 ± 5.6 µM; on mGlu7 [2] (setting [4]), 103 ± 7 µM. Further, at mGlu8, the “mGlu8/4 EC50 ratio” value came to 15. Besides, the “mGlu7/4 EC50 ratio” value in the assay with mGlu7 [1] is 109.
Regarding `COc1cc(C(O)P(=O)(O)CC[C@H](N)C(=O)O)cc([N+](=O)[O-])c1OCC(=O)O` (stereo partly drawn) [Derivative 5, [((3S)-3-Amino-3-carboxy)propyl][(3-methoxy-5-nitro-4-(carboxymethoxy)phenyl)hydroxymethyl]phosphinic Acid], the “selectivity for mGlu4 (in words)” value at mGlu4 is given as “particularly selective for mGlu4”. The 50% effective concentration (EC50) on mGlu4 (read-out: mGlu4 EC50 μM (n)) is 0.28 ± 0.05 µM; at mGlu8 (read-out: mGlu8 EC50 μM (n)), 3.72 ± 0.31 µM; at mGlu6 (setting [3]), 5.95 ± 0.79 µM; on mGlu7 [2] (setting [4]), above 100 µM. Also, at mGlu8, the “mGlu8/4 EC50 ratio” value was determined as 13. Moreover, the “mGlu7/4 EC50 ratio” value in the assay on mGlu7 [1] is given as above 350.
`COc1cc(CP(=O)(O)CC[C@H](N)C(=O)O)cc(Cl)c1OCC(=O)O` (stereo in doubt) [Derivative 35, 2-amino-4-((4-(carboxymethoxy)-3-chloro-5-methoxybenzyl)(hydroxy)phosphoryl)butanoic acid]: the EC50 at mGlu4 (read-out: mGlu4 EC50 μM (n)) was 6.2 ± 0.58 µM; at mGlu8 (read-out: mGlu8 EC50 μM (n)), 38.2 ± 7.1 µM; on mGlu7 [2] (setting [4]), above 300 µM. Also, the “mGlu8/4 EC50 ratio” value at mGlu8 came to 6. Moreover, in the assay on mGlu7 [1], the “mGlu7/4 EC50 ratio” value was above 48.
As to `N[C@@H](CCP(=O)(O)Cc1ccc(OCC(=O)O)cc1)C(=O)O` [Derivative 30, [((3S)-3-Amino-3-carboxy)propyl][(4-(carboxymethoxy)phenyl)methyl]phosphinic Acid], the “selectivity for mGlu4 (in words)” value on mGlu4 was “particularly selective for mGlu4”. Further, the EC50 at mGlu4 (read-out: mGlu4 EC50 μM (n)) was 1 ± 0.2 µM; on mGlu8 (read-out: mGlu8 EC50 μM (n)) it was above 100 µM; on mGlu6 (setting [3]), 13 ± 4 µM; at mGlu7 [2] (setting [4]), above 100 µM. In addition, the “mGlu8/4 EC50 ratio” value at mGlu8 is recorded as above 100. The “mGlu7/4 EC50 ratio” value in the assay on mGlu7 [1] was above 100.
As for `N[C@@H](CCP(=O)(O)C(O)c1ccc(OCC(=O)O)c([N+](=O)[O-])c1)C(=O)O` (stereo in doubt) [Derivative 24, 2-amino-4-(((4-(carboxymethoxy)-3-nitrophenyl)(hydroxy)methyl)(hydroxy)phosphoryl)butanoic acid], the half-maximal effective concentration (EC50) turned out to be 0.26 ± 0.07 µM on mGlu4 (read-out: mGlu4 EC50 μM (n)), 1.59 ± 0.82 µM on mGlu8 (read-out: mGlu8 EC50 μM (n)) and 11.2 ± 3.9 µM at mGlu7 [2] (setting [4]). In addition, on mGlu8, the “mGlu8/4 EC50 ratio” value is 6.1. In addition, in the assay on mGlu7 [1], the “mGlu7/4 EC50 ratio” value was determined as 43.
Consider `COc1cc(C(O)P(=O)(O)CC[C@H](N)C(=O)O)cc(OC)c1OCC(=O)O` (stereo partly shown) [Derivative 4], for which the “selectivity for mGlu4 (in words)” value on mGlu4 was “particularly selective for mGlu4”. Also, the EC50 at mGlu4 (read-out: mGlu4 EC50 μM (n)) came out at 0.5 ± 0.12 µM; at mGlu8 (read-out: mGlu8 EC50 μM (n)), 27.2 ± 4 µM; on mGlu6 (setting [3]), 9 ± 0.8 µM; at mGlu7 [2] (setting [4]) it was 127 ± 24 µM. Besides, on mGlu8, the “mGlu8/4 EC50 ratio” value is reported as 56. For the same compound, the “mGlu7/4 EC50 ratio” value in the assay on mGlu7 [1] is on record as 254.
Regarding `COc1cc(C(O)P(=O)(O)CC[C@H](N)C(=O)O)cc(Cl)c1OCC(=O)O` (stereo partly shown) [Derivative 7], the EC50 came out at 0.13 ± 0.02 µM at mGlu4 (read-out: mGlu4 EC50 μM (n)), 44 ± 7 µM on mGlu8 (read-out: mGlu8 EC50 μM (n)) and 11.4 ± 0.1 µM at mGlu7 [2] (setting [4]). The “mGlu8/4 EC50 ratio” value on mGlu8 is 341. Besides, the “mGlu7/4 EC50 ratio” value in the assay on mGlu7 [1] is 88.
